# Counter-ions that a name gives are not always drawn.
# Assays:
# [1] = Solubility in water; format: physicochemical; details: for solubility: water
# [2] = system: MAXF 401; test: MAXF 401 breast tumour xenograft in nude mice; format: in vivo; details: for Mortality: deaths/animals
# Procedure: All the tests were carried out using female nude mice under standard conditions for the keeping of animals with controlled illumination and temperature. The animals were given water and food as desired.
# The increase in the volume of the individual tumours was measured using microcallipers, and the size of the tumour was calculated according to the formula a*b^2/2 (where a is the largest diameter of the tumour and b is the vertical axis). When the tumour volume had increased to 80-120 mm^3, the animals were allocated at random into test groups of in each case 6 animals.
# The test compounds (in the form of sodium salts) were dissolved in a saline solution, and 5% Klucel (hydroxypropylcellulose) was added in order to dissolve all the test compounds in the same carrier. […] A volume of 10 ml/kg body weight was injected. Animals that received only the carrier served as control. The test compounds were treated according to the scheme of twice weekly administration over a period of […]. The tumour volume and the body weight were checked twice weekly, and the relative tumour volumes were calculated as the ratio of tumour size to body weight.
# On the basis of the relative tumour volumes of the animals treated with the test compounds compared with the tumour volumes of the controls treated only with the carrier, the T/C values were calculated and were used as the index of anti-tumour activity.
# Subcutaneous implantation of the tumour and the determination of the tumour volume were carried out as described hereinbefore. The above-mentioned salts of the test substance were administered by ip injection twice weekly in the mentioned doses in the form of an aqueous solution, over a period of 4 weeks. […]
# Subcutaneous implantation of the tumour and the determination of tumour volumes were carried out as described hereinbefore. The test substance was administered by ip injection twice weekly in the mentioned doses in the form of the sodium salt as an aqueous solution, over a period of 4 weeks.
# [3] = system: Tumour-carrying mice; test: Nephrological tolerability (kidney post-mortem and histology); format: in vivo
# Procedure: A control group was treated only with the carrier according to a twice weekly treatment scheme.
# When the 28-day treatment period had ended, a post-mortem was carried out on the mice. […] The kidneys of all the animals in the test groups were removed by operation, fixed in formalin according to standard methods, embedded in paraffin and processed for HE staining.
# [4] = Solubility in DMSO; format: physicochemical; details: organic solvent or mixture, room temperature
# [5] = system: MEXF 462; test: MEXF 462 melanoma xenograft model; format: in vivo, nude mice; details: for outcome of treatment: equimolar doses ip twice weekly over 4 weeks
# Procedure: Breast tumours (MAXF 401) were implanted subcutaneously into the rear members of the mice aged 10 weeks. The increase in the volume of the individual tumours was measured using microcallipers, and the size of the tumour was calculated according to the formula a*b^2/2 (where a is the largest diameter of the tumour and b is the vertical axis). When the tumour volume had increased to 80-120 mm^3, the animals were allocated at random into test groups of in each case 6 animals. […]
# The anti-tumour activity of the compounds was determined in the MEXF 462 xenograft tumour model in the nude mouse. Subcutaneous implantation of the tumour and the determination of tumour volumes were carried out as described hereinbefore. Groups of in each case 8 animals were used.
# Equimolar amounts of the compound of Example 8 were administered ip twice weekly in the form of a 5% DMSO solution over the mentioned period.
# The progression over time of the anti-tumour action, expressed in % of the tumour volume at the beginning of the test, over the period of therapy is shown in Table 3.
# [6] = room temperature, read-out: solubility in water at room temperature
# [7] = sodium salts ip, equimolar to 350 mg/kg of comparison compound, twice weekly over 5 weeks, 100% = no activity
# [8] = sodium salts ip, equimolar to 350 mg/kg of comparison compound, twice weekly over 5 weeks
# [9] = kidney histology after 28-day twice weekly ip treatment, equimolar to 450 mg of stock composition, affected/animals
smiles,measurement,setting,value
CN(C)/N=N/c1ccc(C(=O)c2ccc(OCC(=O)NCC(=O)O)cc2)cc1 [Example 4a],salting-out effect in 0.9% NaCl,[1]; 0.9% NaCl,pronounced salting-out effect
same,solubility in water at 25° C.,[1]; 25° C.,about 4 g/litre
same,solubility in water at 25° C.,[1]; 25° C.; listed as Example 4a),4 g/L
same,T/C value,"[2]; 400 mg/kg sodium salt ip twice weekly, after 4 weeks' therapy",12
same,remission,"[2]; 500 mg/kg sodium salt ip twice weekly, within 3 weeks of treatment",complete remission
CN(C)/N=N/c1ccc(C(=O)c2ccc(OCC(=O)NCC(=O)O)cc2)cc1 [TRIS salt],solubility in water at 25° C.,[1]; 25° C.,about 250 g/litre
same,solubility,[1]; [6],250 mg/mL
same,remission,"[2]; TRIS salt ip twice weekly, equimolar doses of 360, 400 and 500 mg/kg of the sodium salt, all doses",complete remission
CN(C)/N=N/c1ccc(C(=O)c2ccc(OCCC(=O)NCCS(=O)(=O)[O-])cc2)cc1.[Na+] [Example 9],solubility,[1]; [6],666 mg/mL
CN(C)N=Nc1ccc(C(=O)c2ccc(OCC(=O)[O-])cc2)cc1.[Na+] [Ex. 30 of DE 1793115A],reduction in the tumour volume development,[2]; 350 mg/kg ip,50%
same,T/C value,[2]; [7],48.5%
same,Mortality,[2]; [8],2/6
same,macroscopic findings of the kidneys at post-mortem,[3]; after 28-day treatment period,"macroscopic changes (swelling, local discolouration) of the kidneys"
same,renal histology finding,[3]; after 28-day treatment period,Marked focal tubular necrosis of the kidneys
same,Acute single-cell necrosis,[3]; [9],4/9
same,Focal tubular necrosis,[3]; [9],3/9
"CN(C)/N=N/c1ccc(C(=O)c2ccc(OCC(=O)NCC(=O)O)cc2)cc1 [Example 4, {2-[4-(4-[(1E)-3,3-dimethyl-1-triazenyl]-benzoyl)-phenoxy]-acetylamino}acetic acid]",T/C value,[2]; [7],12.6%
same,Mortality,[2]; [8],0/6
CN(C)N=Nc1ccc(C(=O)c2ccc(OCC(=O)[O-])cc2)cc1.[Na+] [Preparation 1],solubility,"[1]; recrystallisation from water, read-out: Solubility (converted)",40 mg/mL
CN(C)/N=N/c1ccc(C(=O)c2ccc(OCCC(=O)NCC(N)=O)cc2)cc1 [Example 8],solubility,[4],833 mg/mL
same,"tumour volume in % of the tumour volume at the beginning of the test, Mean","[5]; day 0, 285 mg/kg ip twice weekly, 5% DMSO solution",100%
same,"tumour volume in % of the tumour volume at the beginning of the test, Mean","[5]; day 3, 285 mg/kg ip twice weekly, 5% DMSO solution",293%
same,"tumour volume in % of the tumour volume at the beginning of the test, Mean","[5]; day 7, 285 mg/kg ip twice weekly, 5% DMSO solution",369%
same,"tumour volume in % of the tumour volume at the beginning of the test, Mean","[5]; day 11, 285 mg/kg ip twice weekly, 5% DMSO solution",174%
same,"tumour volume in % of the tumour volume at the beginning of the test, Mean","[5]; day 14, 285 mg/kg ip twice weekly, 5% DMSO solution",134%
same,"tumour volume in % of the tumour volume at the beginning of the test, Mean","[5]; day 18, 285 mg/kg ip twice weekly, 5% DMSO solution",107%
same,"tumour volume in % of the tumour volume at the beginning of the test, Mean","[5]; day 21, 285 mg/kg ip twice weekly, 5% DMSO solution",151%
same,"tumour volume in % of the tumour volume at the beginning of the test, Mean","[5]; day 25, 285 mg/kg ip twice weekly, 5% DMSO solution",172%
same,"tumour volume in % of the tumour volume at the beginning of the test, Mean","[5]; day 28, 285 mg/kg ip twice weekly, 5% DMSO solution",271%
same,outcome of treatment,[5],pronounced slowing down of tumour growth
"CN(C)/N=N/c1ccc(C(=O)c2ccc(OCCC(=O)NC(CCC(N)=O)C(=O)O)cc2)cc1 (centres unmarked) [Example 7, 4-carbamoyl-2-{3-[4-(4-[(1E)-3,3-dimethyl-1-triazenyl]-benzoyl)-phenoxy]-propionylamino}-butanoic acid sodium salt]",solubility,"[1]; 25 °C, 25° C., read-out: solubility in water at 25° C.",~400 mg/mL
same,"tumour volume in % of the tumour volume at the beginning of the test, Mean","[5]; day 0, 350 mg/kg ip twice weekly",100%
same,"tumour volume in % of the tumour volume at the beginning of the test, Mean","[5]; day 3, 350 mg/kg ip twice weekly",278%
same,"tumour volume in % of the tumour volume at the beginning of the test, Mean","[5]; day 7, 350 mg/kg ip twice weekly",172%
same,"tumour volume in % of the tumour volume at the beginning of the test, Mean","[5]; day 11, 350 mg/kg ip twice weekly",73%
same,"tumour volume in % of the tumour volume at the beginning of the test, Mean","[5]; day 14, 350 mg/kg ip twice weekly",49%
same,"tumour volume in % of the tumour volume at the beginning of the test, Mean","[5]; day 18, 350 mg/kg ip twice weekly",24%
same,"tumour volume in % of the tumour volume at the beginning of the test, Mean","[5]; day 21, 350 mg/kg ip twice weekly",6%
same,"tumour volume in % of the tumour volume at the beginning of the test, Mean","[5]; day 25, 350 mg/kg ip twice weekly",2%
same,"tumour volume in % of the tumour volume at the beginning of the test, Mean","[5]; day 28, 350 mg/kg ip twice weekly",0.3%
same,outcome of treatment,[5],complete remission
COC(=O)CNC(=O)CCOc1ccc(C(=O)c2ccc(/N=N/N(C)C)cc2)cc1 [Example 1],melting point,,104 to 105 °C
"CN(C)/N=N/c1ccc(C(=O)c2ccc(OCCC(=O)NCC(=O)O)cc2)cc1 [Example 2, {3-[4(4-[(1E)-3,3-dimethyl-1-triazenyl]-benzoyl)-phenoxyl]propionylamino} acetic acid]",T/C value,[2]; [7],3.4%
same,Mortality,[2]; [8],0/6
